The text below walks through data of ChEMBL document CHEMBL1201862, “PubChem BioAssay data set” (2004).

Common to all, as to assay: NCI tumour cell line growth inhibition, 48 h
Assay [1] deals with SNB-19.
Assay [2] concerns NCI-H226.
Assay [3] deals with RXF 393.
Assay [4] deals with 786-0.
Assay [5] concerns HCT-116.
For assay [6], the system named is HCT-15.
For assay [7], the system named is A498.
In assay [8] the test system is SK-MEL-28.
The subject of assay [9] is NCI-H460.
Assay [10] relates to TK-10.
For assay [11], the system named is SNB-75.
Assay [12] relates to BT-549.
Assay [13] deals with KM12.
The subject of assay [14] is OVCAR-4.
For assay [15], the system named is M14.
The subject of assay [16] is HCC 2998.
In assay [17] the test system is UACC-62.
Assay [18] has as its system T47D.
For assay [19], the system named is UACC-257.
For assay [20], the system named is MOLT-4.

Each structure is given as a SMILES string.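 How tested: cells in 96-well plates exposed to compound for 48 hours at five concentrations. GI50: concentration for 50% inhibition of growth.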 The source made the active and inactive calls. Rule as the data show it: active = GI50 up to about 1.1 µM and inactive = higher.

Regarding `CN1CCN(c2nc3c(c(=O)n(C)c(=O)n3C)n2C)CC1`, the GI50 is > 100 µM (inactive) in [1]; > 100 µM (inactive) in [2]; > 100 µM (inactive) in assay [3]; > 100 µM (inactive) in [4]; > 100 µM (inactive) in assay [5]; over 100 µM in assay [6]. Moreover, the GI50 in [7], in assay [8], in [9], in assay [10], in assay [11] and in assay [12] was > 100 µM (inactive) in each case. Also, the GI50 in assay [13], in assay [14], in [15], in assay [16], in assay [17] and in assay [18] was > 100 µM (inactive) in each case. The GI50 in assay [19] was > 100 µM (inactive).

For the compound `CC1=C(c2ccc(C)cc2)NC(=S)C(C)C(c2ccc(C)cc2)=N1` (configuration not stated), the GI50 in [1] was > 100 µM (inactive); in [2] it was > 100 µM (inactive); in assay [3], 14.7 µM (inactive); in [4], > 100 µM (inactive); in assay [5], 58.5 µM (inactive); in assay [6], 82.8 µM. Besides, the GI50 is 32.8 µM (inactive) in assay [20]; 26 µM (inactive) in [7]; 47.1 µM (inactive) in assay [8]; > 100 µM (inactive) in [9]; > 100 µM (inactive) in assay [10]; > 100 µM (inactive) in assay [11]. Also, the GI50 is 72.3 µM (inactive) in [12]; 49.7 µM (inactive) in assay [13]; > 100 µM (inactive) in [14]; 89.3 µM (inactive) in assay [16]; 89.7 µM (inactive) in [17]; 37.1 µM (inactive) in assay [18]. For the same compound, the GI50 in [19] was 51.1 µM (inactive).

For the compound `Cc1n[nH]c(=O)n1/N=C\CC/C=N\n1c(C)n[nH]c1=O`, the GI50 in assay [1] is > 100 µM (inactive); in assay [2], > 100 µM (inactive); in [3], > 100 µM (inactive); in assay [4] it was > 100 µM (inactive); in assay [5], > 100 µM (inactive); in assay [6], over 100 µM. The GI50 in assay [20], in assay [7], in [8], in assay [10], in [11] and in [12] was > 100 µM (inactive) each time. The GI50 in [13], in assay [14], in assay [15], in assay [16], in assay [17] and in [18] was > 100 µM (inactive) in each case. Moreover, the GI50 in [19] was > 100 µM (inactive).

Take `CC(=O)OCC1OC(Nc2ccc3nc(C)n(-c4ccccc4)c(=O)c3c2)C(OC(C)=O)C(OC(C)=O)C1OC(C)=O` (configuration not stated): the GI50 in [1] was > 50 µM (inactive); in assay [2] it was > 50 µM (inactive); in [3], > 50 µM (inactive); in assay [4], > 50 µM (inactive); in assay [5], > 50 µM (inactive); in assay [6], over 50 µM. Further, the GI50 is > 50 µM (inactive) in assay [20]; > 50 µM (inactive) in [7]; > 50 µM (inactive) in assay [8]; 15.5 µM (inactive) in [9]; > 50 µM (inactive) in assay [10]; > 50 µM (inactive) in assay [11]. The GI50 was > 50 µM (inactive) in assay [12]; > 50 µM (inactive) in [13]; > 50 µM (inactive) in assay [14]; > 50 µM (inactive) in [16]; 41.3 µM (inactive) in assay [17]; > 50 µM (inactive) in assay [18]. For the same compound, the GI50 in assay [19] was > 50 µM (inactive).

As for `N#Cc1c(N)c(-c2ccc(Cl)cc2)c(F)c2ccccc12`, the GI50 was > 100 µM (inactive) in assay [1]; > 100 µM (inactive) in assay [2]; 18.8 µM (inactive) in assay [3]; > 100 µM (inactive) in assay [4]; > 100 µM (inactive) in assay [5]; over 100 µM in [6]. The GI50 is > 100 µM (inactive) in assay [7]; > 100 µM (inactive) in [8]; > 100 µM (inactive) in assay [9]; > 100 µM (inactive) in assay [10]; 11.1 µM (inactive) in assay [11]; > 100 µM (inactive) in [12]. The GI50 in [13], in assay [14], in [15], in [16], in [17] and in [18] was > 100 µM (inactive) each time. For the same compound, the GI50 in [19] is > 100 µM (inactive).

Turning to `C=C1C2CC[C@@](C)(O)C2[C@H]2OC(=O)C(=C)[C@@H]2C[C@H]1O` (some centres not stated), the GI50 is 48.6 µM (inactive) in assay [1]; 18 µM (inactive) in assay [2]; 22.1 µM (inactive) in [3]; 16.1 µM (inactive) in [4]; 27 µM (inactive) in assay [5]; 16.7 µM in assay [6]. Further, the GI50 in assay [20] is 14.7 µM (inactive); in assay [7], 41 µM (inactive); in assay [8] it was 26 µM (inactive); in assay [10] it was 14.9 µM (inactive); in assay [11], 43.4 µM (inactive); in assay [12], 10.3 µM (inactive). Further, the GI50 in assay [13] was 19.7 µM (inactive); in assay [14], 14.9 µM (inactive); in [15], 13.8 µM (inactive); in [16] it was 19.1 µM (inactive); in [17] it was 16 µM (inactive); in [18] it was 17.8 µM (inactive). The GI50 in [19] was 16.3 µM (inactive).

Consider `C[C@]1(CO)[C@H]2CC[C@@]34C=C[C@@](CO)(CC[C@H]3[C@]2(C)CC[C@H]1O)C4`, for which the GI50 in [1] was 15 µM (inactive); in assay [2], > 100 µM (inactive); in assay [3], 36.9 µM (inactive); in assay [4], 43.9 µM (inactive); in assay [5], 56.9 µM (inactive); in [6] it was 36.5 µM. In addition, the GI50 in [20] is 8.93 µM (inactive); in [7], > 100 µM (inactive); in [8], > 100 µM (inactive); in assay [10], > 100 µM (inactive); in [11], 17.9 µM (inactive); in assay [12], 56.2 µM (inactive). The GI50 in assay [13] is 38.1 µM (inactive); in assay [14], 13.3 µM (inactive); in [15], 73.6 µM (inactive); in assay [16] it was 38.3 µM (inactive); in assay [17] it was 94.6 µM (inactive); in assay [18], 12.9 µM (inactive). The GI50 in assay [19] was 87.5 µM (inactive).

Take `CCCn1cnc2c(SCC(=O)O)nc(N)nc21`: the GI50 in [1] was > 100 µM (inactive); in assay [2] it was > 100 µM (inactive); in assay [3], > 100 µM (inactive); in assay [4], > 100 µM (inactive); in assay [5], > 100 µM (inactive); in assay [6] it was over 100 µM. Moreover, the GI50 in assay [7], in [8], in assay [9], in [10], in assay [11] and in assay [12] was > 100 µM (inactive) throughout. Moreover, the GI50 in assay [13], in assay [14], in assay [15], in [16], in assay [17] and in assay [18] was > 100 µM (inactive) each time. In assay [19], the GI50 was > 100 µM (inactive).
